This note sets out measurements from patent publication US8138189B2, “Substituted benzene compounds as modulators of the glucocorticoid receptor” (Hoffman-La Roche Inc., priority 2009, dated 2012).

The assay deals with T1, full length human recombinant glucocorticoid receptor (Homo sapiens, UniProt P04150).
T1 construct: partially purified full length human recombinant glucocorticoid receptor; purchased Panvera/Invitrogen PV4302
T1 sequence (P04150 1-777): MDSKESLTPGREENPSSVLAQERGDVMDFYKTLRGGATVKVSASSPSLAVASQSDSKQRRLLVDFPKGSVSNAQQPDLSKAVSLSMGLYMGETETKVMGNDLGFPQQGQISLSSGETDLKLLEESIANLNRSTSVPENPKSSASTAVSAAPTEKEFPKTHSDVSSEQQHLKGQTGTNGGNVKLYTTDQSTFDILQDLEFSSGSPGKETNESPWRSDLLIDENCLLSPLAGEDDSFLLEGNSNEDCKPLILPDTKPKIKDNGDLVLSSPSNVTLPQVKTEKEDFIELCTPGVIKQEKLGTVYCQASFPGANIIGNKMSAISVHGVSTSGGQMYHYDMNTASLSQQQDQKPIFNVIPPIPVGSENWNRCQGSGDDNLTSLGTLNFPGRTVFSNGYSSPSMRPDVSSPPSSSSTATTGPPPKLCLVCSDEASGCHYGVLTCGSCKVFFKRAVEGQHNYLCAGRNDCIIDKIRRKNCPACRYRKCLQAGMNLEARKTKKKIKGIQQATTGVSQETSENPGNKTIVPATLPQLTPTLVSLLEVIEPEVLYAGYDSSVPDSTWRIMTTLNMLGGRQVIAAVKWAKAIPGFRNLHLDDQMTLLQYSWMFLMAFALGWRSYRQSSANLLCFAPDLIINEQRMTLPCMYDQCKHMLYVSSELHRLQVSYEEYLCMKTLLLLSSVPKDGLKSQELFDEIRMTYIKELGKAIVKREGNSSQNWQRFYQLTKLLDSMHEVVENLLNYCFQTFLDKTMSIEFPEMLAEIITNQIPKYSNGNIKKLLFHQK
Briefly: Glucocorticoid Receptor Binding Assay (fluorescence polarization competitor assay, Fluormone GS Far Red tracer). The method, boiled down: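 Serially diluted compounds competed with the tight-binding far-red fluorescent ligand for recombinant full-length human glucocorticoid receptor plus GR-stabilizing peptide (screening buffer pH 7.4; 3 h, 22 °C, dark). Polarization (610-660 nm) gave IC50 via sigmoidal dose-response fits, and Ki was derived by Cheng-Prusoff from tracer concentration and Kd.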
(In general: Fluorescence polarisation rises when a labelled molecule tumbles more slowly, as on binding a larger partner.)

As for `C[C@H](c1ccc(Oc2ccc(C(=O)O)c(Cl)c2)cc1Cl)[C@@](O)(c1ccc(=O)n(C)c1)C(F)(F)F` (stereo in doubt) [Example 154, 2-Chloro-4-{3-chloro-4-[3,3,3-trifluoro-2-hydroxy-1-methyl-2-(1-methyl-6-oxo-1,6-dihydro-pyridin-3-yl)-propyl]-phenoxy}-benzoic acid], the Ki (as a rule, the equilibrium dissociation constant of an inhibitor or competing ligand from its target) was found to be 6.3 nM. To `C[C@H](c1ccc(Oc2ccc(C(=O)O)c(F)c2)cc1Cl)[C@@](O)(c1ccc(=O)n(C)c1)C(F)(F)F` (stereo in doubt) [Example 155, 4-{3-Chloro-4-[3,3,3-trifluoro-2-hydroxy-1-methyl-2-(1-methyl-6-oxo-1,6-dihydro-pyridin-3-yl)-propyl]-phenoxy}-2-fluoro-benzoic acid] belongs 46.2 nM; to `C[C@H](c1ccc(Oc2ccc(CC(=O)O)cc2)cc1Cl)[C@@](O)(c1ccc(=O)n(C)c1)C(F)(F)F` (stereo in doubt) [Example 158, (4-{3-Chloro-4-[3,3,3-trifluoro-2-hydroxy-1-methyl-2-(1-methyl-6-oxo-1,6-dihydro-pyridin-3-yl)-propyl]-phenoxy}-phenyl)-acetic acid], 7.1 nM. On to `CCOC(=O)COc1cc(Oc2ccc([C@@H](C)[C@@](O)(c3ccc(=O)n(C)c3)C(F)(F)F)c(Cl)c2)ccc1F` (stereo in doubt) [Example 161, (5-{3-Chloro-4-[3,3,3-trifluoro-2-hydroxy-1-methyl-2-(1-methyl-6-oxo-1,6-dihydro-pyridin-3-yl)-propyl]-phenoxy}-2-fluoro-phenoxy)-acetic acid ethyl ester], for which the Ki came to 3.1 nM. Consider `C[C@H](c1ccc(Oc2ccc(F)c(OCC(=O)O)c2)cc1Cl)[C@@](O)(c1ccc(=O)n(C)c1)C(F)(F)F` (stereo in doubt) [Example 162, (5-{3-Chloro-4-[3,3,3-trifluoro-2-hydroxy-1-methyl-2-(1-methyl-6-oxo-1,6-dihydro-pyridin-3-yl)-propyl]-phenoxy}-2-fluoro-phenoxy)-acetic acid], for which the Ki came out at 0.6 nM.

In the case of `C[C@H](c1ccc(Oc2cc(C(F)(F)F)c(C(=O)O)cn2)cc1Cl)[C@@](O)(c1ccc(=O)n(C)c1)C(F)(F)F` (stereo in doubt) [Example 164, 6-{3-Chloro-4-[3,3,3-trifluoro-2-hydroxy-1-methyl-2-(1-methyl-6-oxo-1,6-dihydro-pyridin-3-yl)-propyl]-phenoxy}-4-trifluoromethyl-nicotinic acid], the Ki turned out to be 40.2 nM. To `C[C@@H](c1ccc(-c2ccc(C(=O)O)c(Cl)c2)cc1Cl)[C@](O)(c1ccc(=O)n(C)c1)C(F)(F)F` (stereo in doubt) [Example 169, 3,3′-Dichloro-4′-[3,3,3-trifluoro-2-hydroxy-1-methyl-2-(1-methyl-6-oxo-1,6-dihydro-pyridin-3-yl)-propyl]-biphenyl-4-carboxylic acid] belongs 18.1 nM; to `C[C@@H](c1ccc(-c2ccc(Cl)c(C(=O)O)c2)cc1Cl)[C@](O)(c1ccc(=O)n(C)c1)C(F)(F)F` (stereo in doubt) [Example 170, 4,3′-Dichloro-4′-[3,3,3-trifluoro-2-hydroxy-1-methyl-2-(1-methyl-6-oxo-1,6-dihydro-pyridin-3-yl)-propyl]-biphenyl-3-carboxylic acid], 49.7 nM. As for `CCOC(=O)c1cc(-c2ccc([C@H](C)[C@](O)(c3ccc(=O)n(C)c3)C(F)(F)F)c(Cl)c2)ccc1F` (stereo in doubt) [Example 172, 3′-Chloro-4-fluoro-4′-[3,3,3-trifluoro-2-hydroxy-1-methyl-2-(1-methyl-6-oxo-1,6-dihydro-pyridin-3-yl)-propyl]-biphenyl-3-carboxylic acid ethyl ester], the Ki was 3.8 nM. For `COC(=O)c1ccc(-c2ccc([C@H](C)[C@](O)(c3ccc(=O)n(C)c3)C(F)(F)F)c(Cl)c2)cc1OC` (stereo in doubt) [Example 173, 3′-Chloro-3-methoxy-4′-[3,3,3-trifluoro-2-hydroxy-1-methyl-2-(1-methyl-6-oxo-1,6-dihydro-pyridin-3-yl)-propyl]-biphenyl-4-carboxylic acid methyl ester], the Ki was determined as 7.3 nM. In the case of `COc1cc(-c2ccc([C@H](C)[C@](O)(c3ccc(=O)n(C)c3)C(F)(F)F)c(Cl)c2)ccc1C(=O)O` (stereo in doubt) [Example 174, 3′-Chloro-3-methoxy-4′-[3,3,3-trifluoro-2-hydroxy-1-methyl-2-(1-methyl-6-oxo-1,6-dihydro-pyridin-3-yl)-propyl]-biphenyl-4-carboxylic acid], the Ki stood at 97.3 nM. Consider `COC(=O)c1ccc(-c2ccc([C@H](C)[C@](O)(c3ccc(OC)nc3)C(F)(F)F)c(Cl)c2)cc1F` (stereo in doubt) [Example 176, 3′-Chloro-3-fluoro-4′-[3,3,3-trifluoro-2-hydroxy-2-(6-methoxy-pyridin-3-yl)-1-methyl-propyl]-biphenyl-4-carboxylic acid methyl ester], for which the Ki amounted to 93.5 nM.

On to `COC(=O)c1ccc(-c2ccc([C@H](C)[C@](O)(c3ccc(OC)nc3)C(F)(F)F)c(Cl)c2)cc1Cl` (stereo in doubt) [Example 178, 3,3′-Dichloro-4′-[3,3,3-trifluoro-2-hydroxy-2-(6-methoxy-pyridin-3-yl)-1-methyl-propyl]-biphenyl-4-carboxylic acid methyl ester], for which the Ki was found to be 72.1 nM.

Turning to `CCOC(=O)c1cc(-c2ccc([C@H](C)[C@](O)(c3ccc(OC)nc3)C(F)(F)F)c(Cl)c2)ccc1Cl` (stereo in doubt) [Example 180, 4,3′-Dichloro-4′-[3,3,3-trifluoro-2-hydroxy-2-(6-methoxy-pyridin-3-yl)-1-methyl-propyl]-biphenyl-3-carboxylic acid ethyl ester], the Ki is 38.4 nM. With `CCn1cc([C@@](O)([C@@H](C)c2ccc(-c3ccc(F)c(C(=O)O)c3)cc2Cl)C(F)(F)F)ccc1=O` (stereo in doubt) [Example 184, 3′-Chloro-4′-[2-(1-ethyl-6-oxo-1,6-dihydro-pyridin-3-yl)-3,3,3-trifluoro-2-hydroxy-1-methyl-propyl]-4-fluoro-biphenyl-3-carboxylic acid], the Ki is 10.4 nM.

As to `CCn1cc([C@@](O)([C@@H](C)c2ccc(-c3ccc(C(=O)OC)c(F)c3)cc2Cl)C(F)(F)F)ccc1=O` (stereo in doubt) [Example 185, 3′-Chloro-4′-[2-(1-ethyl-6-oxo-1,6-dihydropyridin-3-yl)-3,3,3-trifluoro-2-hydroxy-1-methyl-propyl]-3-fluoro-biphenyl-4-carboxylic acid methyl ester], the Ki was 12.1 nM. To `CCn1cc([C@@](O)([C@@H](C)c2ccc(-c3ccc(C(=O)OC)c(OC)c3)cc2Cl)C(F)(F)F)ccc1=O` (stereo in doubt) [Example 187, 3′-Chloro-4′-[2-(1-ethyl-6-oxo-1,6-dihydro-pyridin-3-yl)-3,3,3-trifluoro-2-hydroxy-1-methyl-propyl]-3-methoxy-biphenyl-4-carboxylic acid methyl ester] belongs 7.4 nM; to `CCn1cc([C@@](O)([C@@H](C)c2ccc(-c3ccc(C(=O)O)c(OC)c3)cc2Cl)C(F)(F)F)ccc1=O` (stereo in doubt) [Example 188, 3′-Chloro-4′-[2-(1-ethyl-6-oxo-1,6-dihydro-pyridin-3-yl)-3,3,3-trifluoro-2-hydroxy-1-methyl-propyl]-3-methoxy-biphenyl-4-carboxylic acid], 98.7 nM. Take `C[C@@H](c1cc(Oc2ccc(C(=O)O)c(Cl)c2)ccc1Cl)[C@](O)(c1ccc(=O)n(C)c1)C(F)(F)F` (stereo in doubt) [Example 190, 2-Chloro-4-{4-chloro-3-[3,3,3-trifluoro-2-hydroxy-1-methyl-2-(1-methyl-6-oxo-1,6-dihydro-pyridin-3-yl)-propyl]-phenoxy}-benzoic acid]: the Ki is 51.4 nM. In the case of `CCOC(=O)c1cc(Oc2ccc(Cl)c([C@H](C)[C@](O)(c3ccc(=O)n(C)c3)C(F)(F)F)c2)ccc1F` (stereo in doubt) [Example 193, 5-{4-Chloro-3-[3,3,3-trifluoro-2-hydroxy-1-methyl-2-(1-methyl-6-oxo-1,6-dihydro-pyridin-3-yl)-propyl]-phenoxy}-2-fluoro-benzoic acid ethyl ester], the Ki turned out to be 10.3 nM. Take `C[C@@H](c1cc(Oc2ccc(F)c(C(=O)O)c2)ccc1Cl)[C@](O)(c1ccc(=O)n(C)c1)C(F)(F)F` (stereo in doubt) [Example 194, 5-{4-Chloro-3-[3,3,3-trifluoro-2-hydroxy-1-methyl-2-(1-methyl-6-oxo-1,6-dihydro-pyridin-3-yl)-propyl]-phenoxy}-2-fluoro-benzoic acid]: the Ki came to 32.3 nM.
